Test results: patent publication US4649139A, “1,2,4-triazines” (Burroughs Wellcome Co., priority 1983, dated 1987)

Legend:
[1] = system: aconitine-induced ventricular arrhythmias in anaesthetised rats; assay: animal or person; format: in vivo, Male Wistar rats; settings: for % decrease in DBP: resting diastolic blood pressure; for amount of aconitine required to elicit ventricular arrhythmia (in words): pretreatment i.v., versus control animals
Procedure: Male Wistar rats weighing 200-300 g were used. Anaesthesia was induced with a halothane:air mixture and maintained by intravenous administration of a chloralose/pentobarbitone sodium mixture (3 mg/ml pentobarbitone sodium+9.5 mg/ml chloralose) after insertion of a femoral vein cannula. A tracheal cannula was inserted and the animal was respired via a Palmer small animal respiration pump (72 strokes/min and approx 1 ml/100 g). Rectal temperature was thermostatically maintained at 37° C. throughout the experiment. Cannulae were placed in a jugular vein for administration of aconitine and a carotid artery for continuous measurement of blood pressure. Subdermal needle electrodes were inserted for the recording of electrocardiograms throughout the experiment.
When the blood pressure of the animal had stabilised for 10-15 minutes, aconitine (dissolved in distilled water+HCl and diluted in 5% dextrose) was infused via the jugular vein cannula at a rate of 1 μg/min (0.03 mls/min). The total dose of aconitine required to produce ventricular tachycardia or ventricular fibrillation (VT/VF) of at least 1 sec duration was taken as the endpoint of the assay.
Anti-arrhythmic activity was assessed by pretreating animals randomly with drug or vehicle 15 mins prior to aconitine infusion and comparing the dose of aconitine necessary to induce ventricular arrhythmias in treatment groups with that of control groups. The compounds in accordance with the invention were administered as the mesylate or hydrochloride salt prepared immediately before use in a 5% dextrose solution. All drugs were administered via a femoral venous cannula in a dose volume of 0.5 ml.

[2] = Stability of the base; format: physicochemical; settings: free base
[3] = system: guinea-pig right ventricular muscle; assay: Guinea-pig right ventricular muscle preparation (Vmax of phase 0 of the action potential); format: cell-based, male guinea-pigs; settings: Cavia porcellus; stimulated at 1 Hz; 0 to 3×10^-4 M in modified Tyrodes solution; read-out: EC50 (50% reduction in Vmax)
Description: Guinea-pig right ventricular muscle preparation: (Campbell, Brit.J.Pharmac., 1982, 77, 541-548)
Strips of right ventricle excised from male guinea-pigs were electrically stimulated at a frequency of 1 Hz with punctate, bipolar silver wire electrodes.

[4] = system: beagle dogs; assay: Toxicity in dogs, daily administration for 14 days; settings: two to three times the effective dose, daily for 14 days
[5] = Rattus norvegicus, iv, 0.25 h, read-out: % increase in aconitine to elicit VT/VF

Row | SMILES | change in vivo at 1 mg/kg [1, 5] | % decrease in DBP ([1]; dose 1 mg/kg (i.v.)) | further results
1 | CCCCCOc1ccc(-c2nn(C)c(=N)nc2N)cc1 [Example 14, 5(3)-Amino-6-(4-n-pentyloxyphenyl)-2,3(2,5)-dihydro-3(5)-imino-2-methyl-1,2,4-triazine] | 8% | 2% | –
2 | N=c1nc(N)c(-c2cccc(Cl)c2Cl)nn1Cc1ccccc1 [Example 12, 5(3)-Amino-6-(2,3-dichlorophenyl)-2,3(2,5)-dihydro-3(5)-imino-2-benzyl-1,2,4-triazine] | 14% | 5% | –
3 | Cn1nc(-c2ccc(Cl)cc2Cl)c(N)nc1=N [Example 11, 5(3)-Amino-6-(2,4-dichlorophenyl)-2,3(2,5)-dihydro-3(5)-imino-2-methyl-1,2,4-triazine] | 33% | 7% | –
4 | Cn1nc(-c2ccccc2)c(N)nc1=N [Example 5, 5(3)-Amino-6-phenyl-2,3(2,5)-dihydro-3(5)-imino-2-methyl-1,2,4-triazine] | – | – | change in vivo at 5 mg/kg [1, 5]: 30%; % decrease in DBP ([1]; dose 5 mg/kg (i.v.)): 5%
5 | Cn1nc(-c2c(F)cccc2Cl)c(N)nc1=N [Example 6, 5(3)-Amino-6-(2-chloro-6-fluorophenyl)-2,3(2,5)-dihydro-3(5)-imino-2-methyl-1,2,4-triazine] | – | – | change in vivo at 5 mg/kg [1, 5]: 149%; % decrease in DBP ([1]; dose 5 mg/kg (i.v.)): 1%
6 | COc1ccc(CCN(C)CCCC(C#N)(c2ccc(OC)c(OC)c2)C(C)C)cc1OC (centres unmarked) [Verapamil, reference compound] | 84% | 68% | amount of aconitine required to elicit ventricular arrhythmia (in words) [1]: increased the amount of aconitine required to elicit the same ventricular arrhythmia
7 | CCN(CC)CCNC(=O)c1ccc(N)cc1 [Procainamide, reference compound] | – | – | change in vivo at 20 mg/kg [1, 5]: 11%; % decrease in DBP ([1]; dose 20 mg/kg (i.v.)): 22%; amount of aconitine required to elicit ventricular arrhythmia (in words) [1]: increased the amount of aconitine required to elicit the same ventricular arrhythmia
8 | CCCCCCCOc1ccccc1-c1nn(C)c(=N)nc1N [Example 17, 5(3)-Amino-6-(2-n-heptyloxyphenyl)-2,3(2,5)-dihydro-3(5)-imino-2-methyl-1,2,4-triazine] | 154% | 3% | –
9 | CCCCCn1nc(-c2cccc(Cl)c2Cl)c(N)nc1=N [Example 18, 5(3)-Amino-6-(2,3-dichlorophenyl)-2,3(2,5)-dihydro-3(5)-imino-2-n-pentyl-1,2,4-triazine] | 46% | 1% | stability of the base (in words) [2]: unstable
10 | Cn1nc(-c2cccc(Cl)c2Cl)c(N)nc1=N [Example 1, 5(3)-Amino-6-(2,3-dichlorophenyl)-2,3(2,5)-dihydro-3(5)-imino-2-methyl-1,2,4-triazine] | 29% | 11% | IC50 [3]: 130 µM
11 | CCCn1nc(-c2cccc(Cl)c2Cl)c(N)nc1=N [Example 10, 5(3)-Amino-6-(2,3-dichlorophenyl)-2,3(2,5)-dihydro-3(5)-imino-2-n-propyl-1,2,4-triazine] | 225% | 3% | –
12 | CC(C)NCC(O)COc1cccc2ccccc12 (centres unmarked) [Propranolol, reference compound] | 51% | 0% | amount of aconitine required to elicit ventricular arrhythmia (in words) [1]: increased the amount of aconitine required to elicit the same ventricular arrhythmia
13 | Cn1nc(-c2cc(Cl)ccc2Cl)c(N)nc1=N [Example 2, 5(3)-Amino-6-(2,5-dichlorophenyl)-2,3(2,5)-dihydro-3(5)-imino-2-methyl-1,2,4-triazine] | – | – | change in vivo at 5 mg/kg [1, 5]: 440%; % decrease in DBP ([1]; dose 5 mg/kg (i.v.)): 10%
14 | Cn1nc(-c2ccccc2I)c(N)nc1=N [Example 7, 5(3)-Amino-6-(2-iodophenyl)-2,3(2,5)-dihydro-3(5)-imino-2-methyl-1,2,4-triazine] | – | – | change in vivo at 5 mg/kg [1, 5]: 106%; % decrease in DBP ([1]; dose 5 mg/kg (i.v.)): 13%
15 | COc1ccccc1-c1nn(C)c(=N)nc1N [Example 8, 5(3)-Amino-6-(2-methoxyphenyl)-2,3(2,5)-dihydro-3(5)-imino-2-methyl-1,2,4-triazine] | – | – | change in vivo at 10 mg/kg [1, 5]: 51%; % decrease in DBP ([1]; dose 10 mg/kg (i.v.)): 8%
16 | Cn1nc(-c2cc(Cl)cc(Cl)c2Cl)c(N)nc1=N [Example 13, 5(3)-Amino-6-(2,3,5-trichlorophenyl)-2,3(2,5)-dihydro-3(5)-imino-2-methyl-1,2,4-triazine] | 246% | 1% | –
17 | CCN(CC)CC(=O)Nc1c(C)cccc1C [Lidocaine, reference compound] | – | – | change in vivo at 10 mg/kg [1, 5]: 44%; % decrease in DBP ([1]; dose 10 mg/kg (i.v.)): 1%; amount of aconitine required to elicit ventricular arrhythmia (in words) [1]: increased the amount of aconitine required to elicit the same ventricular arrhythmia
18 | C=C[C@H]1C[N@@]2CC[C@H]1C[C@@H]2[C@@H](O)c1ccnc2ccc(OC)cc12 [Quinidine, reference compound] | – | – | change in vivo at 10 mg/kg [1, 5]: 8%; % decrease in DBP ([1]; dose 10 mg/kg (i.v.)): 43%; amount of aconitine required to elicit ventricular arrhythmia (in words) [1]: increased the amount of aconitine required to elicit the same ventricular arrhythmia
19 | CCCOc1ccccc1-c1nn(C)c(=N)nc1N [Example 16, 5(3)-Amino-6-(2-n-propyloxyphenyl)-2,3(2,5)-dihydro-3(5)-imino-2-methyl-1,2,4-triazine] | 15% | 3% | –
20 | O=C1NC(=O)C(c2ccccc2)(c2ccccc2)N1 [Phenytoin, reference compound] | – | – | change in vivo at 10 mg/kg [1, 5]: 19%; % decrease in DBP ([1]; dose 10 mg/kg (i.v.)): 4%; amount of aconitine required to elicit ventricular arrhythmia (in words) [1]: increased the amount of aconitine required to elicit the same ventricular arrhythmia
21 | CCCCCOc1ccccc1-c1nn(C)c(=N)nc1N [Example 3, 5(3)-Amino-6-(2-n-pentyloxyphenyl)-2,3(2,5)-dihydro-3(5)-imino-2-methyl-1,2,4-triazine] | 144% | 8% | IC50 [3]: 5.9 µM
22 | CC(C)n1nc(-c2cccc(Cl)c2Cl)c(N)nc1=N [Example 4, 5(3)-Amino-6-(2,3-dichlorophenyl)-2,3(2,5)-dihydro-3(5)-imino-2-isopropyl-1,2,4-triazine] | 490% | 13% | IC50 [3]: 2.2 µM; toxicity (in words) [4]: No marked toxicity was observed
23 | CCCc1ccccc1-c1nn(C)c(=N)nc1N [Example 15, 5(3)-Amino-6-(2-n-propylphenyl)-2,3(2,5)-dihydro-3(5)-imino-2-methyl-1,2,4-triazine] | 12% | 5% | –
24 | Cn1nc(-c2ccccc2Cl)c(N)nc1=N [Example 9, 5(3)-Amino-6-(2-chlorophenyl)-2,3(2,5)-dihydro-3(5)-imino-2-methyl-1,2,4-triazine] | 32% | 4% | –
